Test [1] has as its target T1, horseradish peroxidase (HRP) (Armoracia rusticana, UniProt P00433).
T1 sequence (P00433 31-338 limits assumed): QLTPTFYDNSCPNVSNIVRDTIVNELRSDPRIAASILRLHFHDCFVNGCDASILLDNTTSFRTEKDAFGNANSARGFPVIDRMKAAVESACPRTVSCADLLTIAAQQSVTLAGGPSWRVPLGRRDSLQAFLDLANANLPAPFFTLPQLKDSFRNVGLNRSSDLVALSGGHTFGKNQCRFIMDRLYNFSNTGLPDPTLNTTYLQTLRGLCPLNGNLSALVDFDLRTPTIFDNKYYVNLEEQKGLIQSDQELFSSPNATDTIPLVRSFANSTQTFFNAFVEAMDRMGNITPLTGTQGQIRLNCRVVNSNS
Kind of test: biochemical. It is filed as biochemical. The conditions noted are these: for Effect on chemiluminescence at lowest concentrations: 1, 5, and 10 µM, HRP-H2O2/L-012; for EC50: HRP-H2O2/L-012 system, pH 7.5, 37 °C, 30 min, read-out: EC50 chemiluminescence assay. As for the experimental part:
To investigate the effect of selected palladium (II)-based complexes on the peroxidase (HRP)-catalyzed oxidation of the chemiluminescent probe (L-012), in the presence of hydrogen peroxide (H2O2), the chemiluminescence technique was used. Briefly, plate-reader-based luminescence measurements were performed in white 96-well plates using a Fluoroskan Ascent FL microplate reader (Thermo Labsystems, Vantaa, Finland), with the temperature set at 37 °C. To 5 µL of a stock solution of HRP (1 mg/mL) in phosphate buffer (pH = 7.5) per well, we successively added 10 µL of L-012 (aqueous solution, 0.84 mmoL) and 2 µL of tested compound in 163 µL of buffer solution. The reaction was triggered by adding 20 µL hydrogen peroxide (0.19 µM) to reach the final volume of 200 µL. The light emission, produced from oxidation of L-012 by HRP/H2O2 system, in the presence or absence of the tested palladium complex, was recorded in kinetic mode for 30 min. Inhibition of the emitted light due to tested complexes was associated with higher activity. The following formula was applied to calculate the inhibiting activity of complexes towards the oxidation of L-012 catalyzed by the HRP/H2O2 system:% inhibition = (L control − L Sample) x 100/L Control
(§1) Results were expressed as mean values ± standard deviation (SD). All measurements were replicated three times. EC50 values were calculated with GraphPad Prism 6.0 (GraphPad Software, San Diego, CA, USA) under the application of the function “log (inhibitor) versus normalized response-variable slope” after converting the concentrations into their decimal logarithm. The results were analyzed using Student’s test and a two-way analysis of variance (ANOVA), and a multiple comparison of all data was performed using Tukey’s multiple comparisons test. p < 0.0001 was considered significant.

Test [2] is described as follows: ABTS radical scavenging test (spectrophotometric, 734 nm). The following applies: concentration scavenging 50% of ABTS•+; MeOH, 30 min; mean ± SD. Here is the method:
(§2) Radical scavenging capacity, as an indicator of the antioxidant capacity of compounds against 1,1-diphenyl-2-picrylhydrazyl (DPPH) free radicals and 2,2-azinobis (3-ethyl- enzothiazoline-6-sulfonic acid), ABTS•+ radical cations, was determined using a spectrophotometric assay. Antiradical capacity analysis was performed either on pure MeOH for ABTS or the mixture of MeOH/distilled water (90:10 v/v) for DPPH. For both ABTS and DPPH assays, the stock solutions of complexes were prepared in DMSO. Quercetin was used as an antioxidant standard in the DPPH and ABTS•+ scavenging tests. EC50 is defined as the concentration of compound (µM) required to scavenge 50% of ABTS•+ or DPPH radicals. EC50 values were estimated using nonlinear regression. A lower EC50 value indicates higher antiradical activity.
The ABTS assay was based on the method described by Re et al.. For the generation of ABTS•+ radicals, sodium persulfate (2.45 mM) aqueous solution was mixed with ABTS (7 mM) and incubated overnight in the dark to obtain a dark colored solution. The stock solution of ABTS•+ was then diluted by adding pure methanol (100%) to obtain an absorbance of 0.70 (±0.02) at 734 nm at 30 °C. An aliquot of 0.02 mL of tested compound was added to 1.98 mL of ABTS•+, and the decrease in absorbance was monitored at 734 nm after 30 min [80]. During this reaction, the blue green ABTS radical cation is converted back into its colorless neutral form in the presence of the potential antioxidant molecule. A control consisted of 0.02 mL of DMSO in 1.98 mL of ABTS•+ solution. The reducing capacity was determined according to the following formula:% inhibition = (A control − A Sample) × 100/A Control (1)
as §1

A short description of test [3]: Antiradical efficiency (kinetic study via DPPH assay). The following applies: for AE (antiradical efficiency): AE = 1/EC50.TEC50, DPPH; for Classification of antiradical efficiency: according to Sanchez-Moreno, from AE value; for TEC50: time needed to reach the steady state at the EC50 concentration, DPPH. Here is the method: The reaction between potential antioxidants and the oxidized substrate requires a steady state which will depend on several parameters, such as the reaction time. The time needed to reach the steady state, at the concentration corresponding to EC50, is more and more frequently used and can be defined as TEC50. In brief, TEC50 was determined by plotting the recorded absorbance during the period for the EC50 concentration for the considered antioxidant compound. […] The antiradical efficiency of compounds and their classification are considered according to the work of Sanchez-Moreno [69].
(In general: The DPPH test is a chemical assay of radical scavenging.)

Test [4] in a line: DPPH radical scavenging test (spectrophotometric, 517 nm). The following applies: for EC50 (g Antioxidant/kg DPPH°): EC50 expressed as weight of antioxidant per kg of DPPH radical; for EC50: concentration scavenging 50% of DPPH, 90% MeOH, 30 min, mean ± SD. As for the experimental part: as §2, with “EC50 is defined as the concentration of compound (µM) required to scavenge 50% of ABTS•+ or DPPH radicals.” left out
The DPPH assay was performed according to the method developed by Brand-Williams et al. slightly modified. A solution of 1 mM DPPH in 90% (v/v) methanol was stirred for 40 min. The absorbance of the solution was adjusted to 0.650 ± 0.020 at 517 nm using fresh 90% (v/v) methanol. Then, 0.02 mL of quercetin taken as a standard or sample was mixed with 1.98 mL of DPPH solution and incubated for 30 min in the dark covered with aluminum foil. When reacting with an antioxidant, the DPPH• radical is converted into DPPH, and its color changes from purple to yellow. The antioxidant effect may be easily evaluated by observing the decrease in visible absorption. The absorbance decrease was monitored at 517 nm after 30 min of incubation with a Hewlett Packard 8453 spectrophotometer. The control consisted of 0.02 mL of DMSO in 1.98 mL of DPPH solution. A similar formula (Equation (1)) was applied to determine the DPPH radical scavenging activity.
as §1

On the set-up of test [5]: method as in earlier work. The following applies: values reported in the literature ref 60; read-out: EC50 ABTS, literature values; cited from earlier work.
For test [6] the following is noted: cited from earlier work.

Where two headings read alike, the source gives them in different places.

By EC50 is commonly meant the concentration at which the effect is half-maximal. For the compound `[Cl][Pd@SP2]([c]1ccccc1)([PH](c1ccccc1)(c1ccccc1)c1ccccc1)[PH](c1ccccc1)(c1ccccc1)c1ccccc1` [Complex 9, Trans-Chloro(phenyl)bis(triphenylphosphine)Palladium], in test [1], the “Effect on chemiluminescence at lowest concentrations” value is “weak effect” and the EC50 was found to be 39.2 ± 17 µM. This compound also had an EC50 in test [2] of 10.3 ± 0.64 µM. In addition, in test [3], the “AE (antiradical efficiency)” value is 0.1019 ×10^−3, the “Classification of antiradical efficiency” value is listed as “Low” and the TEC50 is listed as 36 min. Further, in test [4], the “EC50 (g Antioxidant/kg DPPH°)” value amounted to 271.97 ± 36 g Antioxidant/kg DPPH° and it took 7.33 ± 0.97 µM to reach a half-maximal effect (EC50).

As for `O=c1c(O)c(-c2ccc(O)c(O)c2)oc2cc(O)cc(O)c12` [Qrcn, Quercetin, reference compound], in test [1], the “Effect on chemiluminescence at lowest concentrations” value is given as “weak effect” and the EC50 is 7.06 ± 2.56 µM. In test [2], the midpoint of the response, the EC50, lay at 5.56 ± 0.97 µM. Besides, in test [3], the “AE (antiradical efficiency)” value is 0.1873 ×10^−3, the “Classification of antiradical efficiency” value is “Low” and the TEC50 is given as 61 min. In addition, in test [4], the “EC50 (g Antioxidant/kg DPPH°)” value turned out to be 87.98 ± 15 g Antioxidant/kg DPPH° and the midpoint of the response, the EC50, lay at 5.79 ± 1 µM. Moreover, the EC50 in test [5] was roughly 15 µM. Further, the “EC50 (g antioxidant per Kg of DPPH), literature value” in test [6] is 84 ± 6 g/kg.

As usually defined, the IC50 is the midpoint of a concentration-inhibition curve. Regarding `Oc1cc(O)c2c(c1)O[C@H](c1ccc(O)c(O)c1)[C@H](O)C2` [epicatechin], the IC50 in test [6] (flavonoid comparison ref 63, read-out: IC50 DPPH, literature value) is 15.7 µM.

Source of the values: publication PMC11901561, “Free Radical Scavenging Activity and Inhibition of Enzyme-Catalyzed Oxidation by trans-aryl-Palladium Complexes” (Molecules, 2025).
